Experiment [1] deals with T1, human pancreatic chymotrypsin (Homo sapiens, UniProt P17538).
T1 construct: purchased Sigma, EMDbiosciences
Nature of the experiment: Specificity assay, chymotrypsin. It is filed as biochemical. The protocol: (§1) The specificities of compounds of the present disclosure were determined against a variety of serine proteases: human neutrophil elastase (HNE), porcine pancreatic elastase (PPE) and human pancreatic chymotrypsin and one cysteine protease: human liver cathepsin B. In all cases a 96-well plate format protocol using a fluorometric Amino-Methyl-Coumarin (AMC) substrate specific for each enzyme was used as described previously (PCT Patent Application No. WO 00/09543) with some modifications to the serine protease assays. All enzymes were purchased from Sigma, EMDbiosciences while the substrates were from Bachem, Sigma and EMDbiosciences.
(§2) Compound concentrations varied from 100 to 0.4 μM depending on their potency. The enzyme assays were each initiated by addition of substrate to enzyme-inhibitor pre-incubated for 10 min at room temperature and hydrolysis to 15% conversion as measured on CYTOFLUOR®.
50 mM Tris(hydroxymethyl)aminomethane hydrochloride (Tris-HCl) pH 8, 0.5 M Sodium Sulfate (Na2SO4), 50 mM NaCl, 0.1 mM EDTA, 3% DMSO, 0.01% Tween-20 with 5 μM LLVY-AMC and 1 nM Chymotrypsin.
(§3) The percentage of inhibition was calculated using the formula: [1−((UVinh−UVblank)/(UVctl−UVblank))]×100
(§4) A non-linear curve fit was applied to the inhibition-concentration data, and the 50% effective concentration (IC50) was calculated by the use of Excel XLfit software.

Experiment [2] concerns the target T2, HCV NS3/4A protease complex, H77 strain (Hepatitis C virus genotype 1a, UniProt P27958, C1454S/C1711G).
T2 construct: DNA encoding the recombinant HCV NS3/4A protease complex (amino acids 1027 to 1711) for these strains; His tag (inferred from pET21b vector and Ni-NTA purification); made in house; host or cells: Escherichia coli BL21 (DE3), pET21b
Nature of the experiment: FRET peptide assay to monitor HCV NS3/4A proteolytic activity (H77 strain). It is filed as biochemical, Hepatitis C virus (1a genotype). From the text:
HCV […] protease complexes, derived from the BMS strain, H77 strain or J4L6S strain, were generated, as described below. These purified recombinant proteins were generated for use in a homogeneous assay (see below) to provide an indication of how effective compounds of the present disclosure would be in inhibiting HCV NS3 proteolytic activity.
Serum from an HCV-infected patient was obtained from Dr. T. Wright, San Francisco Hospital. An engineered full-length cDNA (compliment deoxyribonucleic acid) template of the HCV genome (BMS strain) was constructed from DNA fragments obtained by reverse transcription-PCR (RT-PCR) of serum RNA (ribonucleic acid) and using primers selected on the basis of homology between other genotype 1a strains. From the determination of the entire genome sequence, a genotype 1a was assigned to the HCV isolate according to the classification of Simmonds et al. (See Simmonds, P. et al., J. Clin. Microbiol., 31(6), 1493-1503 (1993)). […] The infectious clones, H77 (1a genotype) and J4L6S (1b genotype) were obtained from R. Purcell (NIH) and the sequences are published in GENBANK® (AAB67036, see Yanagi, M. et al., Proc. Natl. Acad. Sci. U.S.A., 94(16):8738-8743 (1997); AF054247, see Yanagi, M. et al., Virology, 244(1):161-172 (1998)).
The H77 and J4L6S strains were used for production of recombinant NS3/4A protease complexes. […]

Experiment [3] has as its target T3, porcine pancreatic elastase (PPE) (Sus scrofa, UniProt P00772).
T3 construct: purchased Sigma, EMDbiosciences
Nature of the experiment: Specificity assay, porcine pancreatic elastase. Type of experiment: biochemical. The protocol: as §1, §2
50 mM Tris-HCl, pH 8.0, 50 mM NaCl, 0.1 mM […], 3% DMSO, 0.02% Tween-20, 5 μM succ-AAPV-AMC and 20 nM HNE or 8 nM PPE;
as §3, §4

The next experiment has as its target T4, human liver cathepsin B (Homo sapiens, UniProt P07858).
T4 construct: purchased Sigma, EMDbiosciences; host or cells: human liver
Nature of the experiment: Specificity assay, cathepsin B. It is filed as biochemical. The protocol: as §1, §2
100 mM NaOAC (Sodium Acetate) pH 5.5, 3% DMSO, 1 mM TCEP (Tris(2-carboxyethyl)phosphine hydrochloride), 5 nM Cathepsin B (enzyme stock activated in buffer containing 20 mM TCEP before use), and 2 μM Z-FR-AMC diluted in H2O.
as §3, §4

T3 sequence (P00772 27-266): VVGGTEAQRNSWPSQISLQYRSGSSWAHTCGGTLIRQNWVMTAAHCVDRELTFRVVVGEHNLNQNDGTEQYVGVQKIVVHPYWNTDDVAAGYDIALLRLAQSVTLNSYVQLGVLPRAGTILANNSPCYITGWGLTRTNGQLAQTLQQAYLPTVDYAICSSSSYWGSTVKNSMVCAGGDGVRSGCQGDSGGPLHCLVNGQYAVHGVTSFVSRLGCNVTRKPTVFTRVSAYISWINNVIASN
T1 sequence (P17538 19-263): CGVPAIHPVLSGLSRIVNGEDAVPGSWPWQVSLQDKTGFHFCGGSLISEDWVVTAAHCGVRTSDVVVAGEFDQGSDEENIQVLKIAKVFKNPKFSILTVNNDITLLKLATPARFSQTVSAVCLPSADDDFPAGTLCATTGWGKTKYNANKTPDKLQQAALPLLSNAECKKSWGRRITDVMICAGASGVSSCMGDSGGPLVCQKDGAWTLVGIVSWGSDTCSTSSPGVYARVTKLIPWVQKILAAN
T2 sequence (P27958 1027-1711 C1454S/C1711G, one chain of several): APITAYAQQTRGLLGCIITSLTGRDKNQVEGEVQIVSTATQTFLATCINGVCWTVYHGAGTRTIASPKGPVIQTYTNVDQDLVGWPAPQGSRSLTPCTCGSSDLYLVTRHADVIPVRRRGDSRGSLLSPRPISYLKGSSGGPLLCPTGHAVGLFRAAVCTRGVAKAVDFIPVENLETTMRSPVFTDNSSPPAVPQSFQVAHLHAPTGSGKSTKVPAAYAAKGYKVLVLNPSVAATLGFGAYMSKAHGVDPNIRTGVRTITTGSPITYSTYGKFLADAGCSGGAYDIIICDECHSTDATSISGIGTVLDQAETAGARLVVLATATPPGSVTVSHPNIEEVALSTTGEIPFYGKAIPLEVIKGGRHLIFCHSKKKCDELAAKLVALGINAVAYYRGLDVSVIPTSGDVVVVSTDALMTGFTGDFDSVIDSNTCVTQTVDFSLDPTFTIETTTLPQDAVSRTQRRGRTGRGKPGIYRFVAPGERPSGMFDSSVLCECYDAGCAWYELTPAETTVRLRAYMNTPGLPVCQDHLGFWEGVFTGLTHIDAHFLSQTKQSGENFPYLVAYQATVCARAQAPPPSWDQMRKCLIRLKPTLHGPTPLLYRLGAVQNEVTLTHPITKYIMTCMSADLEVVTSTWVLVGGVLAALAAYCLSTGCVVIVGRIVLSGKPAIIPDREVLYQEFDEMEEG

Consider `C=C[C@@H]1C[C@]1(NC(=O)[C@@H]1C[C@@](SCCCC)(c2ccc(-c3ccccc3)cc2)CN1C(=O)[C@@H](NC(=O)OC(C)(C)C)C(C)(C)C)C(=O)NS(=O)(=O)C1CC1` [Example 1, tert-butyl (S)-1-((2S,4R)-4-(biphenyl-4-yl)-4-(butylthio)-2-((1R,2S)-1-(cyclopropylsulfonylcarbamoyl)-2-vinylcyclopropylcarbamoyl)pyrrolidin-1-yl)-3,3-dimethyl-1-oxobutan-2-ylcarbamate], for which the 50% inhibitory concentration (IC50) in experiment [1] was 13.2 µM; in experiment [2], 0.0017 µM; in experiment [3] it was greater than 25 µM; against human liver cathepsin B it was 7.5 µM.

The record behind these values is US7964560B2, “Hepatitis C virus inhibitors” (Bristol-Myers Squibb Company, priority 2008, dated 2011).
